Experimental data reported in ChEMBL document CHEMBL3259765, “ProTides of N-(3-(5-(2'-deoxyuridine))prop-2-ynyl)octanamide as potential anti-tubercular and anti-viral agents” (Bioorg Med Chem, 2014).
Values after ≈ are worked out from the molar mass of the structure shown. Active and inactive are the calls of the source. No cut-off for these calls is given here.

Tests used:
Escherichia coli = assay: Antibacterial activity against Escherichia coli DH5[alpha] ATCC 53868 after overnight incubation by HT-SPOTi assay; type: functional, organism-based
[1] = system: Mycobacterium tuberculosis; assay: Antibacterial activity against Mycobacterium tuberculosis H37Rv ATCC 27294 up to 2 weeks by HT-SPOTi assay; type: functional; settings: H37Rv ATCC 27294, 336 h
Human alphaherpesvirus 3 [2] = assay: Antiviral activity against thymidine kinase-deficient Varicella zoster virus 07-1 infected in HEL cells assessed as reduction in viral plaque formation after 5 days; type: functional, organism-based; settings: Human alphaherpesvirus 3, 07-1, HEL, 120 h
Human betaherpesvirus 5 [3] = assay: Antiviral activity against Human cytomegalovirus Davis infected in HEL cells assessed as reduction in virus-induced cytopathicity after 7 days; type: functional, organism-based
Human alphaherpesvirus 3 [4] = assay: Antiviral activity against thymidine kinase-positive Varicella zoster virus Oka infected in HEL cells assessed as reduction in viral plaque formation after 5 days; type: functional, organism-based; settings: Human alphaherpesvirus 3, strain Oka vaccine, 120 h
[5] = Cytotoxicity against HEL cells assessed as morphological changes after 3 to 5 days […]; type: cell-based; settings: human
[6] = Cytotoxicity against HEL cells assessed as reduction in cell growth after 3 to 5 days by Coulter counting analysis; type: cell-based; settings: human
Vaccinia virus = assay: Antiviral activity against Vaccinia virus infected in HEL cells assessed as reduction in virus-induced cytopathicity after 3 days; type: functional, organism-based; settings: Orthopoxvirus vaccinia
Human alphaherpesvirus 2 = assay: Antiviral activity against Herpes simplex virus 2 G infected in HEL cells assessed as reduction in virus-induced cytopathicity after 3 days; type: functional, organism-based; settings: Human alphaherpesvirus 2, strain G, 72 h
Human alphaherpesvirus 1 [7] = assay: Antiviral activity against thymidine kinase-positive Herpes simplex virus 1 KOS infected in HEL cells assessed as reduction in virus-induced cytopathicity after 3 days; type: functional, organism-based; settings: Human alphaherpesvirus 1, KOS, 72 h
Human betaherpesvirus 5 [8] = assay: Antiviral activity against Human cytomegalovirus AD169 infected in HEL cells assessed as reduction in virus-induced cytopathicity after 7 days; type: functional, organism-based
Human alphaherpesvirus 1 [9] = assay: Antiviral activity against thymidine kinase-deficient ACV-resistant Herpes simplex virus 1 B-2006 infected in HEL cells assessed as reduction in virus-induced cytopathicity after 3 days; type: functional, organism-based; settings: Human alphaherpesvirus 1, B-2006, HEL, 72 h

Compound | Activity (Escherichia coli) | MIC [1] | EC50 (Human alphaherpesvirus 3 [2]) | Activity (Human betaherpesvirus 5 [3]) | EC50 (Human alphaherpesvirus 3 [4]) | MCC [5] | CC50 [6] | Activity (Vaccinia virus) | EC50 (Human alphaherpesvirus 2) | EC50 (Human alphaherpesvirus 1 [7]) | Activity (Human betaherpesvirus 5 [8]) | EC50 (Human alphaherpesvirus 1 [9])
CCCCCCCC(=O)NCC#Cc1cn([C@H]2C[C@H](O)[C@@H](COP(=O)(N[C@@H](C)C(=O)OCC)Oc3cccc4ccccc34)O2)c(=O)[nH]c1=O (stereo not given in full) | inactive | 125 µg/mL (≈ 175 µM) |  |  |  |  |  |  |  |  |  | 
CCCCCCCC(=O)NCC#Cc1cn([C@H]2C[C@H](O)[C@@H](COP(=O)(N[C@H](C)C(=O)OCc3ccccc3)Oc3ccccc3)O2)c(=O)[nH]c1=O (stereo not given in full) | inactive | 125 µg/mL (≈ 172 µM) |  |  |  |  |  |  |  |  |  | 
CCCCCCCC(=O)NCC#Cc1cn([C@H]2C[C@H](O)[C@@H](COP(=O)(N[C@@H](C)C(=O)OCc3ccccc3)Oc3cccc4ccccc34)O2)c(=O)[nH]c1=O (stereo not given in full) | inactive | 250 µg/mL (≈ 323 µM) | > 20 µM | inactive | 8.6 µM | > 100 µM | 39 µM | inactive | > 100 µM | > 100 µM | inactive | > 100 µM
CCCCCCCC(=O)NCC#Cc1cn([C@H]2C[C@H](O)[C@@H](COP(=O)(N[C@@H](C)C(=O)OC)Oc3ccccc3)O2)c(=O)[nH]c1=O (stereo not given in full) | inactive | > 250 µg/mL |  |  |  |  |  |  |  |  |  | 
CCCCCCCC(=O)NCC#Cc1cn([C@H]2C[C@H](O)[C@@H](COP(=O)(NCC(=O)OCc3ccccc3)Oc3ccccc3)O2)c(=O)[nH]c1=O (stereo not given in full) | inactive | > 250 µg/mL |  |  |  |  |  |  |  |  |  | 
CCCCCCCC(=O)NCC#Cc1cn([C@H]2C[C@H](O)[C@@H](COP(=O)(N[C@@H](C)C(=O)OC)Oc3cccc4ccccc34)O2)c(=O)[nH]c1=O (stereo not given in full) | inactive | 62.5 µg/mL (≈ 89.5 µM) | 46 µM | inactive | 37 µM | > 100 µM | 64 µM | inactive | > 100 µM | > 100 µM | inactive | > 100 µM
CCCCCCCC(=O)NCC#Cc1cn([C@H]2C[C@H](O)[C@@H](COP(=O)(N[C@@H](C)C(=O)OCCC)Oc3ccccc3)O2)c(=O)[nH]c1=O (stereo not given in full) | inactive | 125 µg/mL (≈ 185 µM) |  |  |  |  |  |  |  |  |  | 
CCCCCCCC(=O)NCC#Cc1cn([C@H]2C[C@H](O)[C@@H](CO)O2)c(=O)[nH]c1=O | inactive | > 250 µg/mL | > 100 µM | inactive | > 100 µM |  | > 100 µM | inactive | > 100 µM | > 100 µM | inactive | > 100 µM
CCCCCCCC(=O)NCC#Cc1cn([C@H]2C[C@H](O)[C@@H](COP(=O)(NC(C)(C)C(=O)OCc3ccccc3)Oc3ccccc3)O2)c(=O)[nH]c1=O (stereo not given in full) | inactive | > 125 µg/mL |  |  |  |  |  |  |  |  |  | 
Nc1nc2c(ncn2COCCO)c(=O)[nH]1 [ACYCLOVIR] |  |  | 140 µM |  | 2.6 µM | > 440 µM | 440 µM |  | 0.1 µM |  |  | 
CCCCCCCC(=O)NCC#Cc1cn([C@H]2C[C@H](O)[C@@H](COP(=O)(N[C@H](C(=O)OCc3ccccc3)C(C)C)Oc3ccccc3)O2)c(=O)[nH]c1=O (stereo not given in full) | inactive | 31.2 µg/mL (≈ 41.5 µM) |  |  |  |  |  |  |  |  |  | 
CCCCCCCC(=O)NCC#Cc1cn([C@H]2C[C@H](O)[C@@H](COP(=O)(N[C@@H](C)C(=O)OCc3ccccc3)Oc3ccccc3)O2)c(=O)[nH]c1=O (stereo not given in full) | inactive | 125 µg/mL (≈ 172 µM) | > 20 µM | inactive | 2 µM | > 100 µM | 48 µM | inactive | 4 µM | 2 µM | inactive | > 100 µM
CCCCCCCC(=O)NCC#Cc1cn([C@H]2C[C@H](O)[C@@H](COP(=O)(N[C@@H](C)C(=O)OCC)Oc3ccccc3)O2)c(=O)[nH]c1=O (stereo not given in full) | inactive | 250 µg/mL (≈ 377 µM) |  |  |  |  |  |  |  |  |  | 
CCCCCCCC(=O)NCC#Cc1cn([C@H]2C[C@H](O)[C@@H](COP(=O)(N[C@@H](C)C(=O)OCC(C)C)Oc3cccc4ccccc34)O2)c(=O)[nH]c1=O (stereo not given in full) | inactive | 62.5 µg/mL (≈ 84.4 µM) | > 20 µM | inactive | 20 µM | > 100 µM | 15 µM | inactive | > 100 µM | > 100 µM | inactive | > 100 µM
